{
  "source": "patent US20120283428A1",
  "about": "“HYALURONIC ACID DERIVATIVE EFFECTIVE AGAINST ATOPIC DERMATITIS, AND METHOD FOR MANUFACTURING SAME” (CELLINBIO CO.,LTD, priority 2009, published 2012)",
  "tested_on": "PGE2",
  "test": "PGE2 level in LPS-stimulated macrophage cell-line, ELISA",
  "assay_type": "cell-based, mouse",
  "conditions": "RAW 264.7, 500 ng/ml LPS, 10 mg/ml test substance, 24 hours, compared to control (FIG. 2)",
  "procedure": "As a positive control, ascorbic acid (AA) and a mixture of hyaluronic acid and ascorbic acid (HA+AA) was used in this Example. PGE2 is a substance causing inflammation, edema, pain and fever in body. Microphage cell-line (RAW 264.7) was inoculated into medium containing DMEM (Dulbecco's modified Eagle's medium)/FBS (Fetal Bovine Serum) under a condition of […] of CO2 concentration at a temperature of 37° C. in order to culture the cell-line. […] The complete medium was cultured additionally for 24 hours, and then PGE2 level in supernatant of medium was assayed by ELISA (enzyme-linked Immunosorbent Assay) analysis. […] Each well was washed, and then substrate solution was added.",
  "data": [
    {"smiles": "O=C1O[C@H]([C@@H](O)CO)C(O)=C1O", "note": "[AA, ascorbic acid]", "values": [
      {"measurement": "PGE2 level in supernatant of medium", "value": "decrease PGE2 significantly"}
    ]}
  ]
}
